# Measurements: ChEMBL document CHEMBL3397038, “A coumarin lignanoid from the stems of Kadsura heteroclita” (2015)
# The source made the active and inactive calls. The calls are words filed in the database; no cut-off is given here.
# How the values were obtained:
# Hepatitis B virus [1] = test: Antiviral activity against hepatitis B viral in human HepG2(2.2.15) cells assessed as decrease in surface antigen HBsAg secretion at 25 ug/ml after 7 days; format: functional; conditions: HepG2 2.2.15, 168 h
# Hepatitis B virus [2] = test: Antiviral activity against hepatitis B viral in human HepG2(2.2.15) cells assessed as decrease in surface antigen HBeAg secretion at 25 ug/ml after 7 days; format: functional; conditions: HepG2 2.2.15, 168 h
# PC-12 = test: Neuroprotective activity against serum-deprivation-induced neurotoxicity in rat PC12 cells assessed as cell viability at 10 uM after 48 hrs by MTT assay relative to control; format: functional, cell-based
# [3] = Antifibrotic activity in […] cells assessed as inhibition of acetaldehyde-stimulated cell growth at 50 uM/L; format: functional
# Primary neuron = test: Neuroprotective activity against serum-deprivation-induced neurotoxicity in rat primary cerebellar granule neuronal cells assessed as cell viability at 10 uM by MTT assay relative to control; format: functional, cell-based
smiles,measurement,setting,value
Nc1ccn([C@@H]2CS[C@H](CO)O2)c(=O)n1 [LAMIVUDINE],inhibition at 25 µg/mL,Hepatitis B virus [1],10%
same,inhibition at 25 µg/mL,Hepatitis B virus [2],46%
O=c1oc2cc3c(cc2cc1[C@@H](CO)Cc1ccc2c(c1)OCO2)OCO3,Activity,PC-12,Active
same,inhibition at 50 µM,[3],71%
same,inhibition at 25 µg/mL,Hepatitis B virus [1],57%
same,inhibition at 25 µg/mL,Hepatitis B virus [2],48%
same,Activity,Primary neuron,Active
